Reference: patent US8466145B2, “Dipeptidyl peptidase IV inhibitors” (Orchid Chemicals & Pharmaceuticals Limited, priority 2009, dated 2013)

Assays:
DPP-IV = molecular target: T1, DPP-IV (Homo sapiens, UniProt P27487); experiment: DPP-IV inhibition, compounds screened by using human plasma; assay type: biochemical; details: screened by using human plasma (starred examples); for inhibition at 0.3 µM: 300 nM compound concentration
T1 construct: from tissue; host or cells: human plasma (per the earlier reading of the assay)
T1 sequence (P27487 39-766 limits assumed): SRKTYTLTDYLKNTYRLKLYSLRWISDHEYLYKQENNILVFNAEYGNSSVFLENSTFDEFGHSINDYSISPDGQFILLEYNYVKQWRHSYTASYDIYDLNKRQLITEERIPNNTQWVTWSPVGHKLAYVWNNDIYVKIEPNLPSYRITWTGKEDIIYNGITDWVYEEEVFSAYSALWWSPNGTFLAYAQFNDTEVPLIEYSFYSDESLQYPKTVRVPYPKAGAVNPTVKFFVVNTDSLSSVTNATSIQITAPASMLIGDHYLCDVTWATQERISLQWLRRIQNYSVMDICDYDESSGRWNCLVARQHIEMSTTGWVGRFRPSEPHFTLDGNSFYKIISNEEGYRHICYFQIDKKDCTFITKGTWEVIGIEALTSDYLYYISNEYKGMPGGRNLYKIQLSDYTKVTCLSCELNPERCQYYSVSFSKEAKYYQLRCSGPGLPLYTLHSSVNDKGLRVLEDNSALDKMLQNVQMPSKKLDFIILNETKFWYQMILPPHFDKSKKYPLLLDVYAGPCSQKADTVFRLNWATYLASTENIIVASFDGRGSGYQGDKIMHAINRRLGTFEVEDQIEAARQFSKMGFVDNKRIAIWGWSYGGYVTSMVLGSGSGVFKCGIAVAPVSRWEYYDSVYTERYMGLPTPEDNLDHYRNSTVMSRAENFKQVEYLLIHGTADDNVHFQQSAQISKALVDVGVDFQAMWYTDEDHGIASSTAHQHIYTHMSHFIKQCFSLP

| Structure (SMILES) | inhibition at 0.3 µM (DPP-IV) | melting point | IC50 (DPP-IV) |
| --- | --- | --- | --- |
| CC1(C)[C@H](CS(=O)(=O)c2ccc(S(C)(=O)=O)cc2)CC[C@]1(C)NCC(=O)N1C[C@H](F)C[C@H]1C#N [Example 47, (2S,4R)-4-Fluoro-1-(2-((1S,3R)-1,2,2-trimethyl-3-((4-(methylsulfonyl)phenylsulfonyl)methyl)cyclopentylamino)acetyl)pyrrolidine-2-carbonitrile] | 13.5% | 172 to 175 °C | – |
| CC1(C)[C@H](c2nc(-c3ccc(F)cc3)no2)CC[C@]1(C)NCC(=O)N1C[C@@H](F)C[C@H]1C#N [Example 49, (2S,4S)-4-Fluoro-1-(2-((1S,3R)-3-(3-(4-fluorophenyl)-1,2,4-oxadiazol-5-yl)-1,2,2-trimethylcyclopentylamino)acetyl)pyrrolidine-2-carbonitrile] | – | 160 to 163 °C | 0.422 µM |
| CC(C)c1noc([C@H]2CC[C@@](C)(NCC(=O)N3C[C@@H](F)C[C@H]3C#N)C2(C)C)n1 [Example 52, (2S,4S)-4-Fluoro-1-(2-((1R,3S)-3-(3-isopropyl-1,2,4-oxadiazol-5-yl)-1,2,2-trimethylcyclopentylamino)acetyl)pyrrolidine-2-carbonitrile] | 29.2% | 91 to 94 °C | – |
| CN1C[C@]2(C)CC[C@](NCC(=O)N3C[C@H](F)C[C@H]3C#N)(C1)C2(C)C [Example 77, (2S,4R)-4-Fluoro-1-(2-((1R,5R)-3,5,8,8-tetramethyl-3-azabicyclo[3.2.1]octan-1-ylamino)acetyl)pyrrolidine-2-carbonitrile] | 13.4% | 74 to 79 °C | – |
